Test results taken from patent US20260265202A1, “N-(N-AMINOALKYL)[…] SERIES OF CHLORIDE-SENSITIVE FLUOROPHORES AND METHODS OF USE THEREOF” (The General Hospital Corporation, priority 2022, published 2026).

Tests used:
[1] = Toxicity of probe (stated key feature)
[2] = Spectrophotometry and two-photon excitation scans; assay type: physicochemical
Protocol: Spectrophotometry: Absorption readings were obtained using a Nanodrop One system (Thermo Scientific), while excitation and emission scans were obtained using a Spectramax M2 dual grating system (Molecular Devices). Intensity scans relative to excitation wavelength obtained on either of our custom two-photon excitation (2PE) rigs were analyzed with ImageJ and plotted using Matlab (v2022b).

fluorescence emission maximum ([2]; excitation at 360 nm) | excitation wavelength using 2PE [2] [nm] | Compound | toxicity [1]
approximately 420 nm | – | NCCCC[n+]1cc2ccccc2c2ccccc21 [ABP, N-(4-aminobutyl)phenantridinium] | absence of toxicity
– | 710 | O=S(=O)(O)CCCC[n+]1ccc2ccccc2c1 [NSBQ, N-4(sulfobutyl)isoquinolinium, reference compound] | –
